The supplement of paper PMC10307832

How the values were obtained:
Assay in all cases: relative viability (nuclei count vs DMSO), 5 days (fraction); higher = more cells survive
IMD-0354 + Foretinib = compound: O=C(Nc1cc(C(F)(F)F)cc(C(F)(F)F)c1)c1cc(Cl)ccc1O [IMD-0354] + COc1cc2c(Oc3ccc(NC(=O)C4(C(=O)Nc5ccc(F)cc5)CC4)cc3F)ccnc2cc1OCCCN1CCOCC1 [Foretinib] (partner 0.25 µM)
How it was run: (§1)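 Cells from lung cancer lines were seeded into 1536-well plates and, one day later, dosed by pin tool. Treatments were either a single drug or a fixed dose of an anchor drug with five library-drug doses (not always all listed) in √10 steps. After 5 days, nuclei were stained in a one-step fixation (final 0.05% Triton X-100, 1% formaldehyde, 1 ug/ml Hoechst) and counted on 4× images, and relative viability is the treated-to-vehicle nuclei ratio, as the median of duplicate plates.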

IMD-0354 + Crizotinib = compound: O=C(Nc1cc(C(F)(F)F)cc(C(F)(F)F)c1)c1cc(Cl)ccc1O [IMD-0354] + C[C@@H](Oc1cc(-c2cnn(C3CCNCC3)c2)cnc1N)c1c(Cl)ccc(F)c1Cl [Crizotinib] (partner 1 µM)
How it was run: as §1

CX-5461 + Dasatinib = compound: Cc1cnc(CNC(=O)c2c(=O)c3ccc(N4CCCN(C)CC4)nc3n3c2sc2ccccc23)cn1 [CX-5461] + Cc1nc(Nc2ncc(C(=O)Nc3c(C)cccc3Cl)s2)cc(N2CCN(CCO)CC2)n1 [Dasatinib] (partner 0.075 µM)
How it was run: as §1

CX-5461 + Alpelisib = compound: Cc1cnc(CNC(=O)c2c(=O)c3ccc(N4CCCN(C)CC4)nc3n3c2sc2ccccc23)cn1 [CX-5461] + Cc1nc(NC(=O)N2CCC[C@H]2C(N)=O)sc1-c1ccnc(C(C)(C)C(F)(F)F)c1 [Alpelisib] (partner 2 µM)
How it was run: as §1

Row | Cell Line | relative viability (IMD-0354 + Foretinib; first compound 0.04 µM) | relative viability (IMD-0354 + Foretinib; first compound 0.1265 µM) | relative viability (IMD-0354 + Foretinib; first compound 0.4 µM) | relative viability (IMD-0354 + Foretinib; first compound 1.265 µM) | relative viability (IMD-0354 + Foretinib; first compound 4 µM) | relative viability (IMD-0354 + Crizotinib; first compound 0.04 µM) | relative viability (IMD-0354 + Crizotinib; first compound 0.1265 µM) | relative viability (IMD-0354 + Crizotinib; first compound 0.4 µM) | relative viability (IMD-0354 + Crizotinib; first compound 1.265 µM) | relative viability (IMD-0354 + Crizotinib; first compound 4 µM) | relative viability (CX-5461 + Dasatinib; first compound 0.01 µM) | relative viability (CX-5461 + Dasatinib; first compound 0.03162 µM) | relative viability (CX-5461 + Dasatinib; first compound 0.1 µM) | relative viability (CX-5461 + Dasatinib; first compound 0.3162 µM) | relative viability (CX-5461 + Dasatinib; first compound 1 µM) | relative viability (CX-5461 + Alpelisib; first compound 0.01 µM) | relative viability (CX-5461 + Alpelisib; first compound 0.03162 µM) | relative viability (CX-5461 + Alpelisib; first compound 0.1 µM) | relative viability (CX-5461 + Alpelisib; first compound 0.3162 µM) | relative viability (CX-5461 + Alpelisib; first compound 1 µM)
1 | 201T | 1.18 | 1.18 | 1.05 | 0.235 | 0.178 | 1.09 | 1.02 | 0.815 | 1 | 0.389 | 0.652 | 0.555 | 0.537 | 0.542 | 0.477 | 1.01 | 1.05 | 1.01 | 1.03 | 1
2 | A549 | 0.986 | 1.02 | 0.481 | 0.0713 | 0.0502 | 0.834 | 0.764 | 0.265 | 0.0905 | 0.121 |  |  |  |  |  | 0.771 | 0.561 |  | 0.508 | 0.0561
3 | A-427 | 0.972 | 1.08 | 0.594 | 0.655 | 0.168 | 0.877 | 0.793 | 0.519 | 0.185 | 0.139 | 0.811 | 0.8 | 0.758 |  | 0.539 | 1.08 | 1.16 | 1.17 |  | 1.06
4 | ABC-1 | 0.876 | 1.12 | 0.854 | 0.37 | 0.29 | 1.42 | 1.22 | 0.765 | 0.221 | 0.269 | 0.697 | 0.582 | 0.45 | 0.384 | 0.449 | 1.12 | 0.916 |  | 1.09 | 0.751
5 | BEN | 0.739 | 0.731 | 0.448 | 0.193 | 0.196 | 0.856 | 0.8 | 0.463 | 0.366 | 0.299 | 0.322 | 0.271 | 0.313 | 0.377 | 0.279 | 1.14 | 1.04 | 1.14 | 1.07 | 0.92
6 | CAL-12T | 1.25 | 0.844 | 0.638 | 0.486 | 0.154 | 0.855 | 0.472 | 0.395 | 0.16 | 0.214 | 0.521 | 0.356 | 0.329 | 0.39 | 0.205 | 1.25 | 1.17 |  | 1.37 | 0.546
7 | COR-L23 | 0.833 | 0.844 | 0.349 | 0.138 | 0.131 | 0.616 | 0.532 | 0.302 | 0.193 | 0.131 | 0.477 | 0.495 | 0.438 | 0.46 | 0.226 | 0.81 | 0.921 | 0.649 | 0.725 | 0.342
8 | COR-L 105 | 1.25 | 0.808 | 0.67 | 0.932 | 0.296 | 0.856 | 0.906 | 0.538 | 0.55 | 0.261 | 0.3 | 0.356 | 0.299 | 0.325 | 0.255 | 1.14 | 0.942 | 1.26 | 0.851 | 0.414
9 | Calu-6 | 0.941 | 0.829 | 0.579 | 0.172 | 0.101 | 0.842 | 0.689 | 0.506 | 0.276 | 0.164 |  |  |  |  |  | 0.984 | 1.15 | 0.916 | 1.07 | 0.304
10 | ChaGo-K-1 | 0.998 | 0.875 | 0.747 | 0.531 | 0.258 | 1.16 | 1.26 | 0.788 | 0.398 | 0.433 | 0.57 | 0.57 | 0.575 | 0.469 | 0.253 |  |  |  |  | 
11 | EBC-1 | 0.0859 | 0.103 | 0.104 | 0.105 | 0.0891 | 0.19 | 0.204 | 0.208 | 0.209 | 0.177 |  |  |  |  |  | 0.899 | 0.943 | 0.75 | 0.775 | 0.425
12 | EKVX | 0.974 | 0.975 | 0.714 | 0.0943 | 0.13 | 1.01 | 0.993 |  | 1.07 | 0.246 | 0.55 | 0.522 | 0.481 | 0.554 | 0.477 | 0.93 | 0.865 | 0.902 |  | 0.883
13 | EMC-BAC-2 | 1.08 | 1 | 0.594 | 0.513 | 0.302 | 0.869 | 0.677 | 0.586 | 0.415 | 0.27 | 0.335 | 0.319 | 0.296 | 0.282 | 0.155 | 0.752 | 0.833 | 0.782 | 0.698 | 0.717
14 | EPLC-272H | 0.761 | 0.61 | 0.512 | 0.269 | 0.0781 | 1.04 | 0.787 | 0.67 | 0.822 | 0.225 | 0.327 | 0.364 | 0.387 |  | 0.412 | 0.974 | 1.06 | 0.961 |  | 0.876
15 | H3255 | 0.836 | 1.02 | 0.785 | 0.433 | 0.283 | 0.781 | 0.885 | 0.555 | 0.338 | 0.285 | 0.482 | 0.295 | 0.34 | 0.334 | 0.304 | 0.763 | 0.819 | 0.727 | 0.403 | 0.73
16 | HARA | 1.07 | 0.866 | 0.568 | 0.159 | 0.125 | 1.05 | 0.921 | 0.53 | 0.158 | 0.208 | 0.308 | 0.246 | 0.213 |  | 0.213 | 0.926 | 0.84 | 0.865 | 0.73 | 0.799
17 | HCC-15 | 1.03 | 0.891 | 0.636 | 0.178 | 0.152 | 0.872 | 0.83 | 0.486 | 0.274 | 0.119 | 0.673 | 0.666 | 0.655 | 0.617 | 0.229 | 0.937 | 0.905 | 0.91 | 0.89 | 0.779
18 | HCC-44 |  |  |  |  |  | 0.893 | 0.785 | 0.361 | 0.169 | 0.169 |  |  |  |  |  | 0.752 | 0.991 | 0.839 | 0.827 | 0.753
